Tested on: MDA-MB-231 complex spheroids, growth inhibition
Assay: Anticancer human tumor MDA-MB-231 cell line growth inhibition [Asc];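 also: spheroids exposed to compounds for 7 days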
Conditions: for IC50: curve of first compound; for viability, T/C: stronger effect = lower value
In short: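 Stromal components (HUVEC and hMSC) are co-assembled with the cancer cells into multicellular spheroids. Drugs are then added singly or paired, at concentrations falling by half-log increments from a clinically achievable maximum, capped at 10 microM without known Cmax.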

[1] = second compound 0.01 µM, first compound 0.00316 µM
[2] = second compound 0.01 µM, first compound 0.01 µM
[3] = second compound 0.01 µM, first compound 0.0316 µM
[4] = second compound 0.01 µM, first compound 0.1 µM
[5] = second compound 0.01 µM, first compound 0.316 µM
[6] = second compound 0.01 µM, first compound 1 µM
[7] = second compound 0.0316 µM, first compound 0.00316 µM
[8] = second compound 0.0316 µM, first compound 0.01 µM
[9] = second compound 0.0316 µM, first compound 0.0316 µM
[10] = second compound 0.0316 µM, first compound 0.1 µM
[11] = second compound 0.0316 µM, first compound 0.316 µM
[12] = second compound 0.0316 µM, first compound 1 µM
[13] = second compound 0.1 µM, first compound 0.00316 µM
[14] = second compound 0.1 µM, first compound 0.01 µM
[15] = second compound 0.1 µM, first compound 0.0316 µM
[16] = second compound 0.1 µM, first compound 0.1 µM
[17] = second compound 0.1 µM, first compound 0.316 µM
[18] = second compound 0.1 µM, first compound 1 µM
[19] = second compound 0.316 µM, first compound 0.00316 µM
[20] = second compound 0.316 µM, first compound 0.01 µM
[21] = second compound 0.316 µM, first compound 0.0316 µM
[22] = second compound 0.316 µM, first compound 0.1 µM
[23] = second compound 0.316 µM, first compound 0.316 µM
[24] = second compound 0.316 µM, first compound 1 µM
[25] = second compound 1 µM, first compound 0.00316 µM
[26] = second compound 1 µM, first compound 0.01 µM
[27] = second compound 1 µM, first compound 0.0316 µM
[28] = second compound 1 µM, first compound 0.1 µM
[29] = second compound 1 µM, first compound 0.316 µM
[30] = second compound 1 µM, first compound 1 µM

| IC50 (second compound 0.01 µM) [nM] | IC50 (second compound 0.0316 µM) [nM] | IC50 (second compound 0.1 µM) [nM] | IC50 (second compound 0.316 µM) [nM] | IC50 (second compound 1 µM) [nM] | SMILES | viability, T/C [1] [%] | viability, T/C [2] [%] | viability, T/C [3] [%] | viability, T/C [4] [%] | viability, T/C [5] [%] | viability, T/C [6] [%] | viability, T/C [7] [%] | viability, T/C [9] [%] | viability, T/C [10] [%] | viability, T/C [15] [%] | viability, T/C [16] [%] | viability, T/C [21] [%] | viability, T/C [22] [%] | viability, T/C [27] [%] | viability, T/C [28] [%] | further results |
| --- | --- | --- | --- | --- | --- | --- | --- | --- | --- | --- | --- | --- | --- | --- | --- | --- | --- | --- | --- | --- | --- |
| < 3.16 | < 3.16 | < 3.16 | < 3.16 | < 3.16 | CCN1CCN(Cc2ccc(Nc3ncc(F)c(-c4cc(F)c5nc(C)n(C(C)C)c5c4)n3)nc2)CC1 + CNC(C)C(=O)NC1CN(S(=O)(=O)c2cccc(S(=O)(=O)N3CCC4CCC(C(=O)NC(c5ccccc5)c5ccccc5)N4C(=O)C(NC(=O)C(C)NC)C3)c2)CCC2CCC(C(=O)NC(c3ccccc3)c3ccccc3)N2C1=O | 2.49 | 2.43 | 2.51 | 1.88 | 2.98 | 2.28 | 1.93 | 1.38 | 1.94 | 1.61 | 1.32 | 1.17 | 1.28 | 1.26 | 1.51 | viability, T/C [8]: 1.53%; viability, T/C [11]: 1.87%; viability, T/C [12]: 1.71%; viability, T/C [13]: 1.19%; viability, T/C [14]: 1.19%; viability, T/C [17]: 1.44%; viability, T/C [18]: 1.16%; viability, T/C [19]: 0.98%; viability, T/C [20]: 1.26%; viability, T/C [23]: 1.38%; viability, T/C [24]: 1.15%; viability, T/C [25]: 1.1%; viability, T/C [26]: 0.95%; viability, T/C [29]: 1.22%; viability, T/C [30]: 1.35% |
| < 0.316 | < 0.316 | < 0.316 | < 0.316 | < 0.316 | Cn1ncnc1[C@H]1c2n[nH]c(=O)c3cc(F)cc(c23)N[C@@H]1c1ccc(F)cc1 + CNC(C)C(=O)NC1CN(S(=O)(=O)c2cccc(S(=O)(=O)N3CCC4CCC(C(=O)NC(c5ccccc5)c5ccccc5)N4C(=O)C(NC(=O)C(C)NC)C3)c2)CCC2CCC(C(=O)NC(c3ccccc3)c3ccccc3)N2C1=O | 2.04 | 2.04 | 1.45 | 1.63 |  |  | 1.76 | 1.2 | 1.22 | 1.34 | 1.16 | 1.05 | 1.11 | 1.28 | 1.26 | viability, T/C (second compound 0.01 µM, first compound 0.000316 µM): 1.83%; viability, T/C (second compound 0.01 µM, first compound 0.001 µM): 2.14%; viability, T/C (second compound 0.0316 µM, first compound 0.000316 µM): 1.73%; viability, T/C (second compound 0.0316 µM, first compound 0.001 µM): 1.45%; viability, T/C [8]: 1.3%; viability, T/C (second compound 0.1 µM, first compound 0.000316 µM): 1.17%; viability, T/C (second compound 0.1 µM, first compound 0.001 µM): 1.47%; viability, T/C [13]: 0.96%; viability, T/C [14]: 1.19%; viability, T/C (second compound 0.316 µM, first compound 0.000316 µM): 1.12%; viability, T/C (second compound 0.316 µM, first compound 0.001 µM): 1.11%; viability, T/C [19]: 1.32%; viability, T/C [20]: 0.91%; viability, T/C (second compound 1 µM, first compound 0.000316 µM): 1.53%; viability, T/C (second compound 1 µM, first compound 0.001 µM): 1.2%; viability, T/C [25]: 1.23%; viability, T/C [26]: 1.23% |
| < 31.6 | < 31.6 | < 31.6 | < 31.6 | < 31.6 | O=C(c1cc(Cc2n[nH]c(=O)c3ccccc23)ccc1F)N1CCN(C(=O)C2CC2)CC1 + CNC(C)C(=O)NC1CN(S(=O)(=O)c2cccc(S(=O)(=O)N3CCC4CCC(C(=O)NC(c5ccccc5)c5ccccc5)N4C(=O)C(NC(=O)C(C)NC)C3)c2)CCC2CCC(C(=O)NC(c3ccccc3)c3ccccc3)N2C1=O |  |  | 2.12 | 2.15 | 2.12 | 2.46 |  | 1.57 | 1.69 | 1.25 | 1.35 | 1.03 | 1.15 | 1.05 | 1.48 | viability, T/C (second compound 0.01 µM, first compound 3.16 µM): 1.41%; viability, T/C (second compound 0.01 µM, first compound 10 µM): 1.59%; viability, T/C [11]: 1.39%; viability, T/C [12]: 1.53%; viability, T/C (second compound 0.0316 µM, first compound 3.16 µM): 1.35%; viability, T/C (second compound 0.0316 µM, first compound 10 µM): 1.61%; viability, T/C [17]: 1.63%; viability, T/C [18]: 1.07%; viability, T/C (second compound 0.1 µM, first compound 3.16 µM): 1.04%; viability, T/C (second compound 0.1 µM, first compound 10 µM): 1.01%; viability, T/C [23]: 1.4%; viability, T/C [24]: 1.07%; viability, T/C (second compound 0.316 µM, first compound 3.16 µM): 0.98%; viability, T/C (second compound 0.316 µM, first compound 10 µM): 0.83%; viability, T/C [29]: 1.17%; viability, T/C [30]: 0.97%; viability, T/C (second compound 1 µM, first compound 3.16 µM): 0.82%; viability, T/C (second compound 1 µM, first compound 10 µM): 0.96% |
| < 3.16 | < 3.16 | < 3.16 | < 3.16 | < 3.16 | O=C(c1ccc(F)c(F)c1Nc1ccc(I)cc1F)N1CC(O)([C@@H]2CCCCN2)C1 + CNC(C)C(=O)NC1CN(S(=O)(=O)c2cccc(S(=O)(=O)N3CCC4CCC(C(=O)NC(c5ccccc5)c5ccccc5)N4C(=O)C(NC(=O)C(C)NC)C3)c2)CCC2CCC(C(=O)NC(c3ccccc3)c3ccccc3)N2C1=O | 1.58 | 1.82 | 1.57 | 1.24 | 0.45 | 0.19 | 2 | 1.23 | 0.72 | 0.88 | 0.74 | 0.9 | 1.27 | 1.11 | 1.67 | viability, T/C [8]: 1.64%; viability, T/C [11]: 0.39%; viability, T/C [12]: 0.17%; viability, T/C [13]: 0.99%; viability, T/C [14]: 0.94%; viability, T/C [17]: 0.5%; viability, T/C [18]: 0.25%; viability, T/C [19]: 1.14%; viability, T/C [20]: 0.91%; viability, T/C [23]: 0.57%; viability, T/C [24]: 0.2%; viability, T/C [25]: 1.64%; viability, T/C [26]: 1.24%; viability, T/C [29]: 1.13%; viability, T/C [30]: 0.21% |

Source: PubChem BioAssay AID1963443 (Molecular Pharmacology Branch, DTP, NCI, 2024)
